# From US4857507A, “Angiotensinogen analogs” (Abbott Laboratories, priority 1987, dated 1989)
# Target: T1, human renal renin (Homo sapiens, UniProt P00797)
# T1 construct: human renal renin, free from acid proteolytic activity; from tissue; host or cells: human kidney (from the word 'renal')
# T1 sequence (P00797 67-406): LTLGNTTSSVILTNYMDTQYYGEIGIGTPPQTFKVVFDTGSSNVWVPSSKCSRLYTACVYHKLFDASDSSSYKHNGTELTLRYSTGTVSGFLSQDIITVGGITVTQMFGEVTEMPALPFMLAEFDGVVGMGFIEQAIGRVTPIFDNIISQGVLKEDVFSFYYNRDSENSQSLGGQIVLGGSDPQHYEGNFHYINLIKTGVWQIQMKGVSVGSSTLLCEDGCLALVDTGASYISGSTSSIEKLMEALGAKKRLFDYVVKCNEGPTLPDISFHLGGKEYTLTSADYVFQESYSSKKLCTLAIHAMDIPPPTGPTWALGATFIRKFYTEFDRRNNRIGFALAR
# Assay: inhibition of human renal renin in vitro, angiotensin I formed measured by radioimmunoassay
# Format: biochemical
# Conditions: compound at 10^-5 M; human renin substrate (angiotensinogen), 37° C., pH 6.0
# Description: At the end of the incubation, the amount of angiotensin I formed is measured by radioimmunoassay and the molor concentration required to cause 50% inhibition, expressed as the IC50, is calculated.
row,Molecule,% inhibition at 10^-5 M [%]
1,"CC(C)CCC(=O)NC(CC(O)C(CC(C)C)NC(=O)[C@H](C)NC(=O)[C@H](Cc1ccccc1)NC(=O)OC(C)(C)C)c1ccccc1 (stereo partly drawn) [Example 42, Boc-Phe-Ala amide of 4-amino-3-hydroxy-6-methyl-1-(4-methylvaleryl)amino-1-phenylheptane]",41

# Same assay, conditions: human renal renin with human renin substrate (angiotensinogen), 37° C., pH 6.0
row,Molecule,IC50 [µM]
1,"CC(C)CCSCC[C@H](O)[C@H](CC(C)C)NC(=O)[C@H](C)NC(=O)[C@H](Cc1ccccc1)NC(=O)OC(C)(C)C [Example 17, Boc-Phe-Ala amide of (3S,4S)-4-amino-3-hydroxy-1-isoamylmercapto-6-methylheptane]",5.5
2,"CC(C)S(=O)(=O)NCC[C@H](O)[C@H](CC1CCCCC1)NC(=O)C(Cc1cnc[nH]1)NC(=O)C(Cc1ccccc1)NC(=O)OC(C)(C)C (stereo partly drawn) [Example 50, Boc-Phe-His Amide of (3S,4S)-1-(2-propylsulfonylamino)-3-hydroxy-4-amino-5-cyclohexylpentane]",0.025
3,"CC(C)CCC(=O)NCC[C@H](O)[C@H](CC1CCCCC1)NC(=O)C(Cc1ccncn1)NC(=O)[C@H](Cc1ccccc1)NC(=O)OC(C)(C)C (mixture of isomers) [Example 62, Boc-Phe-dl-4-pyrimidinylalanine Amide of (3S,4S)-1-(3-Methylbutylcarbonylamino)-3-hydroxy-4-amino-5-cyclohexylpentane]",0.02
4,"CC(C)C[C@H](NC(=O)[C@H](C)NC(=O)[C@H](Cc1ccccc1)NC(=O)OC(C)(C)C)[C@@H](O)CCS(=O)(=O)CCc1ccccc1 [Example 18, Boc-Phe-Ala amide of (3S,4S)-4-amino-3-hydroxy-6-methyl-1-phenethylsulfonylheptane]",2
5,"CC(C)C[C@H](NC(=O)C(C)NC(=O)C(Cc1ccccc1)NC(=O)OC(C)(C)C)[C@@H](O)CCSCCc1ccccc1 (stereo partly drawn) [Example 16, Boc-Phe-Ala amide of (3S,4S)-4-amino-3-hydroxy-6-methyl-1-phenethylmercaptoheptane]",4
6,"CC(C)CCC(=O)NCC[C@H](O)[C@H](CC1CCCCC1)NC(=O)C(C)NC(=O)C(Cc1ccccc1)NC(=O)OC(C)(C)C (stereo partly drawn) [Example 34, Boc-Phe-Ala Amide of (3S,4S)-1-(3-Methylbutylcarbonylamino)-3-hydroxy-4-amino-5-cyclohexylpentane]",0.03
7,"Boc-Phe-His amide of (3S,4S)-4-amino-3-hydroxy-11-isoamylsulfonyl-6-methylheptane [Example 22]",0.1
8,"CC(C)CC(NC(=O)C(Cc1ccccc1)NC(=O)OC(C)(C)C)C(=O)N[C@@H](CC1CCCCC1)[C@@H](O)C(F)=CSC(C)C (stereo partly drawn) [Example 83(B), Boc-Phe-Leu amide of (3R,4S,EZ)-3-hydroxy-4-amino-2-fluoro-1-isopropylmercapto-5-cyclohexyl-1-pentene]",0.05
9,"CC(C)CCC(=O)NCC(F)(F)[C@H](O)[C@H](CC1CCCCC1)NC(=O)C(CC(C)C)NC(=O)C(Cc1ccccc1)NC(=O)OC(C)(C)C (stereo partly drawn) [Example 85, Boc-Phe-Leu amide of (3R,4S)-3-hydroxy-4-amino-2,2-difluoro-1-isopentylcarbonylamino-5-cyclohexylpentane]",0.02
10,"CC(C)CCC(=O)CC[C@H](O)[C@H](CC(C)C)NC(=O)[C@H](C)NC(=O)[C@H](Cc1ccccc1)NC(=O)OC(C)(C)C [Example 30, Boc-Phe-Ala amide of (4S,5S)-4-amino-2,11-dimethyl-5-hydroxy-8-oxododecane]",2.5
11,"CC(C)C[C@H](NC(=O)[C@H](Cc1ccccc1)NC(=O)OC(C)(C)C)C(=O)N[C@@H](CC1CCCCC1)[C@@H](O)C(F)(F)CSC(C)C [Example 83(A), Boc-Phe-Leu amide of (3R,4S)-3-hydroxy-4-amino-2,2-difluoro-1-isopropylmercapto-5-cyclohexylpentane]",0.025
12,"CC(C)C[C@H](NC(=O)C(C)NC(=O)C(Cc1ccccc1)NC(=O)OC(C)(C)C)[C@@H](O)CCOc1ccccc1 (stereo partly drawn) [Example 21, Boc-Phe-Ala amide of (3S,4S)-4-amino-3-hydroxy-6-methyl-1-phenoxyheptane]",2
13,"CC(C)C[C@H](NC(=O)[C@H](Cc1ccccc1)NC(=O)OC(C)(C)C)C(=O)N[C@@H](CC1CCCCC1)[C@@H](O)C(F)(F)CN=[N+]=[N-] [Example 78, Boc-Phe-Leu amide of (3R,4S)-3-hydroxy-4-amino-2,2-difluoro-1-azido-5-cyclohexylpentane]",0.03
14,"CC(C)C[C@H](NC(=O)C(Cc1cnc[nH]1)NC(=O)C(Cc1ccccc1)NC(=O)OC(C)(C)C)[C@@H](O)CCS(=O)(=O)CCc1ccccc1 (stereo partly drawn) [Example 23, Boc-Phe-His amide of (3S,4S)-4-amino-3-hydroxy-6-methyl-1-phenethylsulfonylheptane]",0.08
15,"CC(C)(C)OC(=O)NC(Cc1ccccc1)C(=O)NC(Cc1cnc[nH]1)C(=O)N[C@@H](CC1CCCCC1)[C@@H](O)CCN=[N+]=[N-] (stereo partly drawn) [Example 125, Boc-Phe-His Amide of (3S,4S)-1-Azido-3-hydroxy-4-amino-5-cyclohexylpentane]",0.02
16,"CC(C)CCNC(=O)C(CC(O)C(CC(C)C)NC(=O)C(C)NC(=O)C(Cc1ccccc1)NC(=O)OC(C)(C)C)c1ccccc1 (stereo not drawn) [Example 46, Boc-Phe-Ala amide of 5-amino-4-hydroxy-77-methyl-2-phenyloctanoic acid isoamyl amide]",3
17,"CCCSCC(=O)NCC[C@H](O)[C@H](CC1CCCCC1)NC(=O)C(Cc1cnc[nH]1)NC(=O)C(Cc1ccccc1)NC(=O)OC(C)(C)C (stereo partly drawn) [Example 67, Boc-Phe-His Amide of (3S,4S)-1-(2-Propylmercaptoacetylamino)-3-hydroxy-4-amino-5-cyclohexylpentane]",0.025
18,"CC(C)C[C@H](NC(=O)[C@H](Cc1ccccc1)NC(=O)OC(C)(C)C)C(=O)N[C@@H](CC1CCCCC1)C(=O)/C(F)=C/S(=O)(=O)C(C)C [Example 96, Boc-Phe-Leu amide of (Z,4S)-3-oxo-4-amino-2-fluoro-1-isopropylsulfonyl-5-cyclohexyl-1-pentene]",0.02

# Results, then the molecule that gave them:
row,IC50 [µM],Molecule
1,0.02,"CCCS(=O)(=O)CC(=O)NCC[C@H](O)[C@H](CC1CCCCC1)NC(=O)[C@H](Cc1cnc[nH]1)NC(=O)[C@H](Cc1ccccc1)NC(=O)OC(C)(C)C [Example 68, Boc-Phe-His Amide of (3S,4S)-1-(2-Propylsulfonylacetylamino)-3-hydroxy-4-amino-5-cyclohexylpentane]"
2,0.015,"CC(C)CCC(=O)NCC[C@H](O)[C@H](CC1CCCCC1)NC(=O)[C@H](Cc1cnc[nH]1)NC(=O)[C@H](Cc1ccccc1)NC(=O)OC(C)(C)C [Example 35, Boc-Phe-His Amide of (3S,4S)-1-(3-Methylbutylcarbonylamino)-3-hydroxy-4-amino-5-cyclohexylpentane]"
3,0.015,"Boc-Phe-3-methyl-His Amide of (3S,4S)-1-(3-Methylbutylcarbonylamino)-3-hydroxy-4-amino-5-cyclohexylpentane [Example 52]"
4,0.01,"CC(C)CCC(=O)NCC[C@H](O)[C@H](CC1CCCCC1)NC(=O)C(Cc1cscn1)NC(=O)C(Cc1ccccc1)NC(=O)OC(C)(C)C (mixture of isomers) [Example 59, Boc-Phe-dl-4-thiazolylalanine Amide of (3S,4S)-1-(3-Methylbutylcarbonylamino)-3-hydroxy-4-amino-5-cyclohexylpentane]"
5,0.001,"CC(C)CC(NC(=O)C(Cc1ccccc1)NC(=O)OC(C)(C)C)C(=O)N[C@@H](CC1CCCCC1)C(=O)C(F)(F)CS(=O)(=O)C(C)C (stereo partly drawn) [Example 95, Boc-Phe-Leu amide of (4S)-3-oxo-4-amino-2,2-difluoro-1-isopropylsulfonyl-5-cyclohexylpentane]"
6,0.006,"Boc-Phe-dl-3-pyrazolylalanine Amide of (3S,4S)-1-(3-Methylbutylcarbonylamino)-3-hydroxy-4-amino-5-cyclohexylpentane [Example 58]"
7,0.0025,"CC(C)C[C@H](NC(=O)[C@H](Cc1ccccc1)NC(=O)OC(C)(C)C)C(=O)N[C@@H](CC1CCCCC1)C(=O)C(F)(F)CN=[N+]=[N-] [Example 88, Boc-Phe-Leu amide of (4S)-3-oxo-4-amino-2,2-difluoro-1-azido-5-cyclohexylpentane]"
8,0.0025,"CC(C)CC(NC(=O)C(Cc1ccccc1)NC(=O)OC(C)(C)C)C(=O)N[C@@H](CC1CCCCC1)C(=O)C(F)(F)CSC(C)C (stereo partly drawn) [Example 93, Boc-Phe-Leu amide of (4S)-3-oxo-4-amino-2,2-difluoro-1-isopropylmercapto-5-cyclohexylpentane]"
9,0.002,"CC(C)CCC(=O)NCC(F)(F)C(=O)[C@H](CC1CCCCC1)NC(=O)[C@H](CC(C)C)NC(=O)[C@H](Cc1ccccc1)NC(=O)OC(C)(C)C [Example 94, Boc-Phe-Leu amide of (4S)-3-oxo-4-amino-2,2-difluoro-1-isopentylcarbonylamino-5-cyclohexylpentane]"
10,0.0045,"CC(C)CC(NC(=O)C(Cc1ccccc1)NC(=O)OC(C)(C)C)C(=O)N[C@@H](CC1CCCCC1)[C@@H](O)C(F)=CS(=O)(=O)C(C)C (stereo partly drawn) [Example 87, Boc-Phe-Leu amide of (3R,4S,EZ)-3-hydroxy-4-amino-2-fluoro-1-isopropyl-sulfonyl-5-cyclohexyl-1- pentene]"
11,0.01,"CC(C)CC(NC(=O)C(Cc1ccccc1)NC(=O)OC(C)(C)C)C(=O)N[C@@H](CC1CCCCC1)[C@@H](O)C(F)(F)CS(=O)(=O)C(C)C (stereo partly drawn) [Example 86, Boc-Phe-Leu amide of (3R,4S)-3-hydroxy-4-amino-2,2-difluoro-1-isopropylsulfonyl-5-cyclohexylpentane]"
